From US10913781B2, “Pepducin design and use” (Tufts Medical Center, Inc., priority 2011, dated 2021)
Peptide text beside a SMILES is read from it. * marks the point of attachment. Palmitoyl = CCCCCCCCCCCCCCCC(=O)*

Legend:
VEGF-A production = assay: Thrombin-dependent VEGF-A production in A549 cells (ELISA); type: cell-based, human; conditions: A549, 18 hours thrombin treatment
Procedure: FIG. 13 illustrates that monotherapy with PAR1-i3 pepducins inhibits tumor progression of A549 xenografts. (A) and (B): A549 mice treated with vehicle, P1pal-7, P1pal-i1-11, P1pal-10S, X1/2-i1, X1/2-i3, or Avastin. Each time point represents the mean±SE. (C): Final tumor volume at the completion of the experiment was calculated as a percentage of untreated vehicle control. (D): Serum-starved A549 adenocarcinoma cells were pretreated with P1pal-7, P1pal-10S, P1pal-i1-11, vehicle, or PD98059 and stimulated with thrombin. VEGF production was assessed by enzyme-linked immunosorbent assay. Data are expressed as mean±SD (*P<0.05, **P<0.01).
Because the i3-based P1pal-7 pepducin had similar efficacy as Avastin in suppressing lung tumor growth of A549 xenografts, VEGF-A production was measured in the A549 tumor cells after 18 hours thrombin treatment. […] Unlike in ovarian cancer, no increase was found in PAR1-mediated IL-8 production in A549 cells, consistent with the observed lack of efficacy of CXCR1/2 pepducins in the A549 xenograft models. These xenograft data provide support for the role of a novel PAR1-ERK1/2-VEGF paracrine pathway that is an effective therapeutic target in the A549 adenocarcinoma lung cancer model.

PAR2 [1] = molecular target: T1, PAR2 (Homo sapiens, UniProt P55085); assay: PAR2 binding to avidin beads coupled with PAR2 i3 loop 18S peptide
PAR2 [2] = molecular target: T1, PAR2; assay: Ligand-dependent endocytosis of PAR2; type: cell-based
From the text: Additionally, we tested whether P2pal-18S inhibited proteolytic cleavage of PAR2 or endocytosis (DeFea K A, et al. (2000) J Cell Biol 148: 1267-81; Roosterman D, et al. (2003) Am J Physiol Cell Physiol 284: C1319-29; Stalheim L, et al. (2005) Mol Pharmacol 67: 78-87). […] Therefore, the P2pal-18S i3 loop pepducin can inhibit PAR2-dependent calcium signaling, PLC-b inositol phosphate formation, and cell migration, but not proteolytic cleavage or endocytosis.

PAR4 = molecular target: T2, PAR4 (Homo sapiens, UniProt Q96RI0); assay: Human neutrophil chemotaxis to AYPGKF; type: cell-based; parameters: endogenous in cells; host or cells: human peripheral blood neutrophils; conditions: 100 μM AYPGKF
T2 sequence (Q96RI0 18-385): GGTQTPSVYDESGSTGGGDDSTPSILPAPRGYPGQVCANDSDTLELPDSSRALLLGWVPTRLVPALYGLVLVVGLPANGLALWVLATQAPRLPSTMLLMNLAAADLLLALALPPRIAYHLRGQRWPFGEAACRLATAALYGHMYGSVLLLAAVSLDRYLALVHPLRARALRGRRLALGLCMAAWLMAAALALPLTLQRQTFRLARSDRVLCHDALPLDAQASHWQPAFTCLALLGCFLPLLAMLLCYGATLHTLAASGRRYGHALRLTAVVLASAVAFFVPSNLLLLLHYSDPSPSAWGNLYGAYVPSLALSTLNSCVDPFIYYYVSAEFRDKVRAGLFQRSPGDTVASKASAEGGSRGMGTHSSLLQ
Procedure: (A) Human neutrophils (n=4 normal volunteers) were analyzed for surface expression of human PAR1, PAR2, and PAR4 by flow cytometry with PAR-specific antibodies. […] Chemotaxis index is the ratio of directed versus random migration over 30 min through a 5-μm pore filter.
P2pal-18S had no effect on PAR1-dependent platelet aggregation (FIG. 5A). Neither P2pal-18S nor P2pal-14GQ caused membrane disruption or apoptosis as assessed by propidium iodide uptake in SW620 cells with up to 30 μM concentrations of pepducin (FIG. 5B).

PAR2 [3] = molecular target: T1, PAR2; assay: Human neutrophil chemotaxis toward mast cell conditioned media (PAR2 pepducin); type: cell-based; parameters: SW620 colon adenocarcinoma cells that endogenously express PAR2; endogenous in cells; host or cells: SW620 (in A7 the SW620 cells were additionally stably transfected with PAR1); conditions: 1 mM P2pal-18S; 30 min
Procedure: (A) Mast cells were treated with 2 mg/mL of mast cell degranulating agent 48/80 or 2% 1-carrageenan/4% kaolin. […] (B) P2pal-18S inhibits human neutrophil chemotaxis (n=6) to mast cell media. Human neutrophils were incubated with […] P2pal-18S, or […] mast cell tryptase inhibitor APC-366 and allowed to migrate 30 min toward CM from mast cells. (C) C57BL/6 mice (n=5) were pretreated with the tryptase inhibitor APC-366 (5 mg/kg, s.c.) or vehicle (20% DMSO) and then challenged with intraplantar injection of 1-carrageenan/kaolin. (D) Mast cell conditioned media (30 μL of 1-carrageenan/kaolin stimulated media) was injected into the hindpaws of C57BL/6 mice treated with 10 mg/kg P2pal-18S or vehicle (n=5). Data represent mean±SEM. #, P=0.07, *, P<0.05 and **, P<0.005. (E) Mast cell-deficient mice have a significant reduction in 1-carrageenan/kaolin induced paw edema (8 h time point, n=4-6) as compared to littermate controls. Mast-cell deficient mice or littermate controls with intact mast cells were treated with P2pal-18S (10 mg/kg, s.c.) or vehicle and hind paws challenged with 1-carrageenan/kaolin irritant. Error bars represent mean±SEM. […]

T1 sequence (P55085 26-397): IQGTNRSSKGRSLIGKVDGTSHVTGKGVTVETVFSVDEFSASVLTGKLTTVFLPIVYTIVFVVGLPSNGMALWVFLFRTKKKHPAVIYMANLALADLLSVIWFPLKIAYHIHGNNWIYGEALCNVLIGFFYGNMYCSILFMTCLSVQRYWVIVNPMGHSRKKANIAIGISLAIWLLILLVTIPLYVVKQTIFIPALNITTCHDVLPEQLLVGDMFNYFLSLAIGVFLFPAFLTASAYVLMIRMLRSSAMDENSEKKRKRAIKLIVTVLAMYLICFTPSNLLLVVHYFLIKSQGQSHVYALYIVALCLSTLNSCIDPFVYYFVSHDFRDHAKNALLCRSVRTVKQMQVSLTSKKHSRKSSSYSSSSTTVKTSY

Structure (SMILES)	Effect on thrombin-dependent VEGF-A production (VEGF-A production)	Binding of PAR2 to peptide-coupled avidin beads versus beads alone (PAR2 [1])	Inhibition of ligand-dependent endocytosis of PAR2 (PAR2 [2])	Antagonist activity, neutrophil chemotaxis, PAR4 (PAR4)	Inhibition of chemotactic migration toward tryptase-containing mast cell media (PAR2 [3])
CCCCCCCCCCCCCCCC(=O)N[C@H](C(=O)N[C@@H](CC(C)C)C(=O)N[C@@H](CCCCN)C(=O)N[C@@H](CCSC)C(=O)N[C@@H](CCCCN)C(=O)N[C@H](C(=O)N[C@@H](CCCCN)C(=O)N[C@@H](CCCCN)C(=O)N1CCC[C@H]1C(=O)N[C@@H](C)C(=O)N[C@H](C(N)=O)C(C)C)C(C)C)[C@@H](C)CC [P1pal-i1-11] (Palmitoyl-ILKMKVKKPAV-NH2)	did not inhibit				
CCCCCCCCCCCCCCCC(=O)N[C@@H](CCCNC(=N)N)C(=O)N[C@@H](CO)C(=O)N[C@@H](CO)C(=O)N[C@@H](C)C(=O)N[C@@H](CCSC)C(=O)N[C@@H](CC(=O)O)C(=O)N[C@@H](CCC(=O)O)C(=O)N[C@@H](CC(N)=O)C(=O)N[C@@H](CO)C(=O)N[C@@H](CCC(=O)O)C(=O)N[C@@H](CCCCN)C(=O)N[C@@H](CCCCN)C(=O)N[C@@H](CCCNC(=N)N)C(=O)N[C@@H](CCCCN)C(=O)N[C@@H](CO)C(=O)N[C@@H](C)C(=O)N[C@H](C(=O)N[C@@H](CCCCN)C(N)=O)[C@@H](C)CC [P2pal-18S]		enhanced binding	did not inhibit	no antagonist activity	completely inhibited
